{"source": "paper PMC6481345", "about": "“A novel anti-melanoma SRC-family kinase inhibitor” (Oncotarget, 2019)", "key": {"MEK5": {"molecular_target": "T1, MEK5 (Homo sapiens, UniProt Q13163)", "T1 construct": "we tested the endogenous kinome response to SAB298; host or cells: YUSIV and YUSIK melanoma cell lysates", "T1 sequence (Q13163 whole entry)": "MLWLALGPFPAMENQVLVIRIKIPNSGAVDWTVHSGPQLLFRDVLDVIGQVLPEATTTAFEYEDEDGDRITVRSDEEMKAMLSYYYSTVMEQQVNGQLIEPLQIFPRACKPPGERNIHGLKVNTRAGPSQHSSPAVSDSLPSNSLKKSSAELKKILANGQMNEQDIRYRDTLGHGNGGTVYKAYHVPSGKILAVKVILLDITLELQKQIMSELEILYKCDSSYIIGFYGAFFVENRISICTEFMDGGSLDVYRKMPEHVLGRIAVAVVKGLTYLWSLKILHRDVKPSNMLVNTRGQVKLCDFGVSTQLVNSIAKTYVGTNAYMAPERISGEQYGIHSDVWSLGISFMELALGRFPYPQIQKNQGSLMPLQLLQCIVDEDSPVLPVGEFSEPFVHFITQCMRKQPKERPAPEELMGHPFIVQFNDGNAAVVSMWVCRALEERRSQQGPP", "test": "KiNativ in situ kinase profiling in melanoma cell lysates", "type": "binding", "conditions": "3-point dose response", "description": "(§1) The effect of SAB298 on a panel of 36 recombinant kinases, was screed with the radioisotope filter binding assay employing 10 concentrations of the compound with 10 µM ATP (Reaction Biology Corporation, Malvern, PA). In addition, we tested the endogenous kinome response to SAB298 (0.05 µM, 0.5 µM and 5 µM) in lysates from two melanoma cell lines (YUSIV and YUSIK) employing the KiNativ® platform (ActivX Biosciences Inc., La Jolla, CA). KiNativ® is a robust, high performance mass spectrometry (LC-MS^2) assay that uses biotinylated probes to measure relevant changes in the affinity to the ATP-binding sites of 205 native kinases as a function of cellular context. We also validated SAB298 effect on the activity of SRC-family kinases by probing for phosphorylated Y416, the marker of activated SFKs, with anti-IEDNEpYTAR antibodies (also known as Y419, #2101, Cell Signaling Technology, Beverly, MA). In some cases the cells were incubated overnight with 20 µM proteasome inhibitor MG-132 (CAS 133407-82-6, Millipore Sigma, Burlington, MA) to rescue degradation."}, "ERBB3": {"molecular_target": "T2, ERBB3 (Homo sapiens, UniProt P21860)", "T2 construct": "we tested the endogenous kinome response to SAB298; host or cells: YUSIV and YUSIK melanoma cell lysates", "T2 sequence (P21860 20-1342)": "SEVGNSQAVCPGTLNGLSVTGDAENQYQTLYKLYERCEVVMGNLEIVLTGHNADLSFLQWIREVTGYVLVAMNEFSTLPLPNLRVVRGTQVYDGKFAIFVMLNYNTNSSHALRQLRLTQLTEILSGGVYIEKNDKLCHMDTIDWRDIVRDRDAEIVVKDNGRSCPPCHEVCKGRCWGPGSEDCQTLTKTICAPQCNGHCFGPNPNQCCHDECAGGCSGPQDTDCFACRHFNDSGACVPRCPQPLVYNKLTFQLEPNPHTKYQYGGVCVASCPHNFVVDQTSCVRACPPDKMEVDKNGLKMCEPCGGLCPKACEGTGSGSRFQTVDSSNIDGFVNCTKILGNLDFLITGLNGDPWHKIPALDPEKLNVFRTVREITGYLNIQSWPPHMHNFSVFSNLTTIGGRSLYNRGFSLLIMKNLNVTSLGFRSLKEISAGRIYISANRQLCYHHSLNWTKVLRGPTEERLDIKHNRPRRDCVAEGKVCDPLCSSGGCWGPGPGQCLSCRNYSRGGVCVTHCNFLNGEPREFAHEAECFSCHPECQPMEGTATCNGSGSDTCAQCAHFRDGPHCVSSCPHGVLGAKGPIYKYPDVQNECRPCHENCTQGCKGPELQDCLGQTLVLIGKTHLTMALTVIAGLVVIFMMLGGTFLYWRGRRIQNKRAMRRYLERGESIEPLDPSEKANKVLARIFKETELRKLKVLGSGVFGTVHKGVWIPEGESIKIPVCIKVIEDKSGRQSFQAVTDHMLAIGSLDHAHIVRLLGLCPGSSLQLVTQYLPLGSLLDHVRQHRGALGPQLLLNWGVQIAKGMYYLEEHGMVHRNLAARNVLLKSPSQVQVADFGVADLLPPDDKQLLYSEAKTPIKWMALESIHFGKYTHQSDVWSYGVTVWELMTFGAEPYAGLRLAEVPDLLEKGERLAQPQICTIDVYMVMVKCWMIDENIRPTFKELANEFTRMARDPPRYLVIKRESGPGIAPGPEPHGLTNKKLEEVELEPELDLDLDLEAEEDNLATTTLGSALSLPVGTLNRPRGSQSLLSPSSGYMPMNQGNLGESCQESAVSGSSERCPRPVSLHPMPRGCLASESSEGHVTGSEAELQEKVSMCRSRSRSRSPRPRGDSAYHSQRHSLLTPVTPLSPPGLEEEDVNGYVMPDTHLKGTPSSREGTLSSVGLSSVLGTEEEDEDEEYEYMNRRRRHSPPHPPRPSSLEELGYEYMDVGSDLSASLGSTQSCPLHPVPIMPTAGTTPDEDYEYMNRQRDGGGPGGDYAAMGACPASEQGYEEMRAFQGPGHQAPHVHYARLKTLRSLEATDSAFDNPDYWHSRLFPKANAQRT", "test": "KiNativ in situ kinase profiling in melanoma cell lysates", "type": "binding", "conditions": "3-point dose response", "description": "as §1"}, "MEK1": {"molecular_target": "T3, MEK1 (Homo sapiens, UniProt Q02750)", "T3 construct": "we tested the endogenous kinome response to SAB298; host or cells: YUSIV or YUSIK melanoma cell lysate", "T3 sequence (Q02750 whole entry)": "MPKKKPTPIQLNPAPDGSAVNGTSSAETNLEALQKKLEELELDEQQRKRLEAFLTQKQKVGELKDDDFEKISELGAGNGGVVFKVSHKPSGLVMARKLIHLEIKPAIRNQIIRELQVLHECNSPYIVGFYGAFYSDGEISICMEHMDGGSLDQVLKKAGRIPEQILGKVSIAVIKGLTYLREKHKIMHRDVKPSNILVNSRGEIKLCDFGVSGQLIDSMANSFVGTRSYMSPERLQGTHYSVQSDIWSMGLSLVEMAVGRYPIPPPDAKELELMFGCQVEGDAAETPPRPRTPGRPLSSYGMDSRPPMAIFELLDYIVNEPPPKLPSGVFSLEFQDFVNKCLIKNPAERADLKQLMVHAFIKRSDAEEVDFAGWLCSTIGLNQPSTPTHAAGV", "test": "KiNativ in situ kinase profiling in melanoma cell lysates", "type": "binding", "conditions": "MEK1 in YUSIV lysate; 3-point dose response", "description": "as §1"}, "mTOR": {"molecular_target": "T4, mTOR (Homo sapiens, UniProt P42345)", "T4 construct": "we tested the endogenous kinome response to SAB298; host or cells: YUSIV and YUSIK melanoma cell lysates", "test": "KiNativ in situ kinase profiling in melanoma cell lysates", "type": "binding", "conditions": "3-point dose response", "description": "as §1"}, "RIPK2": {"molecular_target": "T5, RIPK2 (Homo sapiens, UniProt O43353)", "T5 construct": "we tested the endogenous kinome response to SAB298; host or cells: YUSIV or YUSIK melanoma cell lysate", "T5 sequence (O43353 whole entry)": "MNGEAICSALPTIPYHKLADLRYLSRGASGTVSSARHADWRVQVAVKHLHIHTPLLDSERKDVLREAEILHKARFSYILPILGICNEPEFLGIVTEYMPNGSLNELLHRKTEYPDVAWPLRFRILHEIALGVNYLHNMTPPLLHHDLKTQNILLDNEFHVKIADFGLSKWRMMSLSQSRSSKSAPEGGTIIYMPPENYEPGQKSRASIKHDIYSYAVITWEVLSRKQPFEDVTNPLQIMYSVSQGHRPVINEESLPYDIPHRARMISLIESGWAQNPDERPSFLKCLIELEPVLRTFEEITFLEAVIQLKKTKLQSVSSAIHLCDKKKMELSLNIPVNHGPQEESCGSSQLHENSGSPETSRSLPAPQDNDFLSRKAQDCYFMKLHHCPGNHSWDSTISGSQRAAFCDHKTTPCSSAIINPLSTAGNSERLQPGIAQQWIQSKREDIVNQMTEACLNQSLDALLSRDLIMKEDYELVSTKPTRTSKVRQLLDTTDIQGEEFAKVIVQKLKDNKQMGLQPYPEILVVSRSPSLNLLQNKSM", "test": "KiNativ in situ kinase profiling in melanoma cell lysates", "type": "binding", "conditions": "RIPK2 in YUSIK lysate; 3-point dose response", "description": "as §1"}, "EGFR": {"molecular_target": "T6, EGFR (Homo sapiens, UniProt P00533)", "T6 construct": "we tested the endogenous kinome response to SAB298; host or cells: YUSIV and YUSIK melanoma cell lysates", "T6 sequence (P00533 25-1210)": "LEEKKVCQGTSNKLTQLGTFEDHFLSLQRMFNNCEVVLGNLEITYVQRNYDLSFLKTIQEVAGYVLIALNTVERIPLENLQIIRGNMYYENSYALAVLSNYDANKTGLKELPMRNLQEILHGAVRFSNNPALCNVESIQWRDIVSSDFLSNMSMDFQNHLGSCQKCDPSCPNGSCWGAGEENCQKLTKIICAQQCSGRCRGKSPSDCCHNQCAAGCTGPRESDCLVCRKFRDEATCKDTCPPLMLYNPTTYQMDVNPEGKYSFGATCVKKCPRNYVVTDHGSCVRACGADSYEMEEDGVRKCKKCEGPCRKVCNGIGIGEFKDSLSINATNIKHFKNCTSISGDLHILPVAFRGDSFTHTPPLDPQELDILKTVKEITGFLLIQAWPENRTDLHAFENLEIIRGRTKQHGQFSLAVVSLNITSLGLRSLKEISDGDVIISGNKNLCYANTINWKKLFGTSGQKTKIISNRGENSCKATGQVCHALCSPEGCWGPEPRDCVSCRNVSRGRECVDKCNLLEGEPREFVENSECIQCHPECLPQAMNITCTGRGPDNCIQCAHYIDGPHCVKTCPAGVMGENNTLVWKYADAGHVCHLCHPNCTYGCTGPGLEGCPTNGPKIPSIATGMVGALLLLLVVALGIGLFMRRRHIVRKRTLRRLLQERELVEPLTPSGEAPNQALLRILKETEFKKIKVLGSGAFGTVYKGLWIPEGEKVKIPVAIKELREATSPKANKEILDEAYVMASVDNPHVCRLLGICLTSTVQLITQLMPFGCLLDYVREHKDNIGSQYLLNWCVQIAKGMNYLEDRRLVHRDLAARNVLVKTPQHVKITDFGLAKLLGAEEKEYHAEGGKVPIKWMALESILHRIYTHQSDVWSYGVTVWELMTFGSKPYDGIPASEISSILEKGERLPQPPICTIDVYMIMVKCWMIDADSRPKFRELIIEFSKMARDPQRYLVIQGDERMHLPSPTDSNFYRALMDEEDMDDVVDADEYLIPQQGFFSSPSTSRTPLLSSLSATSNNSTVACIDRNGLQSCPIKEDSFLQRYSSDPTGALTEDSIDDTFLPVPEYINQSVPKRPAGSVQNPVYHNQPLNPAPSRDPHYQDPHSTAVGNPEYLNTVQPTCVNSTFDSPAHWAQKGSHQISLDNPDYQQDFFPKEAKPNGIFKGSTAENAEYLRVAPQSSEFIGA", "test": "KiNativ in situ kinase profiling in melanoma cell lysates", "type": "binding", "conditions": "3-point dose response", "description": "as §1"}, "YES1": {"molecular_target": "YES1 (Homo sapiens, UniProt P07947)", "sequence (P07947 whole entry)": "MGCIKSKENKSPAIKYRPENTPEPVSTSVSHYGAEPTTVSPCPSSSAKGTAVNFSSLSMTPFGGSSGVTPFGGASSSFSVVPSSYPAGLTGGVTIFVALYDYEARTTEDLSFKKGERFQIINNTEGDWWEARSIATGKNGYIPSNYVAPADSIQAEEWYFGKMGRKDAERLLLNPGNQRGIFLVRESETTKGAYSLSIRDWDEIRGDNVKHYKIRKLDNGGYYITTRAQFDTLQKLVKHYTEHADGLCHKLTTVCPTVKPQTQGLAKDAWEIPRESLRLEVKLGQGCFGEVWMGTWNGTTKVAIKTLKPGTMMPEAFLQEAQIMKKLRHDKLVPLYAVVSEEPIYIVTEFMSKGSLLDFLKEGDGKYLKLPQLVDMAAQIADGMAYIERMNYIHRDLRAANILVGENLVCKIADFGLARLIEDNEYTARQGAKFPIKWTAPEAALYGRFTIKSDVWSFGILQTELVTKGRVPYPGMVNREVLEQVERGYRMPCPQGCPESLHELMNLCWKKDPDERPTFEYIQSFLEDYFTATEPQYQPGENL", "test": "KiNativ in situ kinase profiling in melanoma cell lysates", "type": "binding", "parameters": "the endogenous kinome response to SAB298 (0.05 µM, 0.5 µM and 5 µM) in lysates from two melanoma cell lines; host or cells: YUSIV melanoma cell lysate (not present in YUSIK)", "conditions": "YES1 in YUSIV lysate; 3-point dose response", "description": "as §1"}, "YUGASP melanoma cells": {"system": "YUGASP melanoma cells", "test": "CellTiter-Glo Luminescent Cell Viability Assay", "type": "cell-based, human", "conditions": "growth response", "description": "(§2) The melanoma cells were grown in OptiMEM (Invitrogen, Carlsbad, CA) supplemented with 5% fetal calf serum and antibiotics. The normal human melanocytes (NBMEL) were grown in medium supplemented with bFGF, IBMX and dbcAMP [32]. Most of the Yale melanoma cell lines were characterized by next-generation sequencing (Supplementary Table 2).\n(§3) Cell proliferation was measured with the CellTiter-Glo® Luminescent Cell Viability Assay (Promega Corporation, Madison, WI). Melanoma cells were seeded in 96-well plates in triplicate or quadruplet wells, with increasing concentrations of kinase inhibitors for 72 hrs. The rate of proliferation was also tested after knockdown of different SRC-family kinases (SFK) with hairpin lentivirus shRNA as indicated. […] The statistical significance of synergism of response to drug combinations was evaluated by following Chou and Talalay algorithm. See also details in Supplementary Material."}, "[1]": {"system": "NBMEL normal human melanocytes", "test": "CellTiter-Glo Luminescent Cell Viability Assay", "type": "cell-based", "conditions": "Melanocyte, WT, 72 hrs", "description": "SFK-inhibitors were tested on a panel of NCI-60 cell lines (Supplementary Table 1) and 30 melanoma cell lines and NBMEL, i.e., normal human melanocytes isolated from a newborn foreskin (Table 1 and Supplementary Table 2). The Yale melanoma cohort designated YU originated from tumors excised to improve patient quality of life and used with participants’ informed consent according to Health Insurance Portability and Accountability Act (HIPAA) regulations with Human Investigative Committee protocol.\nas §2\nas §3, with “See also details in Supplementary Material.” left out"}, "MITF": {"system": "MITF", "test": "Western blot, MITF levels", "type": "cell-based, human", "conditions": "melanoma cell lines, SAB298 0.5 µM, UM-164 1 µM, 6 hrs, SCH772984 0.5 µM", "description": "We used standard techniques to identify changes in intracellular signaling in response to various treatments. Briefly, melanoma cells were incubated with test compounds, using DMSO as a control, collected by scraping on ice, and lysed in RIPA buffer supplemented with protease and phosphatase inhibitors (MA #78428, and #78425, respectively, Thermo Fisher Scientific, Waltham, MA). Protein concentrations were measured with the BioRad kit (Bio-Rad Laboratories, Hercules, CA), SDS sample buffer was added, extracts were heated at 95°C, sonicated and centrifuged. Cell extracts (20 µg/lane) were fractionated in 3%–8% or 4–12 % tris-acetate gel (NP0006, NuPAGE Life Technologies). We probed with the following primary antibodies: phospho-SRC Tyr416 (CST #2101S), pSRC Tyr527 (#2105), SRC (#2108), pPI3K p85 Y458/p55 Y199 (#4228), LYN (C13F9, #2796), FYN (#4023), phospho-MEK1/2 pSer217/221 (#9121), MEK1/2, phospho-ERK2 pThr202/Tyr204 (#9101), ERK1/2 (#9107), phospho-p38 kinase T180/Y182 (#9216), p38 kinase (#9212), PP2A (#2259), pSHP2 Y542 (#3751), SHP2 (D50F2, #3397), ERBB2 (D8F12 XP(R), #4290), phospho-ERBB2 Y1196 (D66B7 #6942), MYC (D84C12, #5605); GAPDH (14C10, #2118), all from Cell Signaling Technology, Beverly, MA; phospho-PP2A Y307 (AF3989), and MITF (clone D5, #AF5769) from R&D Systems, Inc., Minneapolis, MN; p27KIP1 (#10241) and YES (#610375) from BD Biosciences, San Jose, CA; Cyclin D1 (#04-221) and β-actin (mouse mAb A5316) from MilliporeSigma, St. Louis, MO; PI3K Antibody (p85 alpha, NSJ R30480) from Bioreagents, 9921 Carmel Mountain Rd #352, San Diego, CA. All antibodies were used at the concentrations recommended by the manufacturers."}}, "note": "pIC50: −log10 of the molar value."}
{"smiles": "Nc1ncnc2c1c(-c1ccc(Oc3ccccc3)cc1)nn2C[C@@H]1SSC[C@@H]1O", "note": "[SAB298, (3S, 4S)-3-((4-amino-3-(4-phenoxyphenyl)-1H-pyrazolo[3,4-d]pyrimidin-1-yl)methyl)-1,2-dithiolan-4-ol]", "values": [{"measurement": "pIC50", "setting": "MEK5; MEK5 in YUSIK lysate", "value": 5.82}, {"measurement": "pIC50", "setting": "MEK5; MEK5 in YUSIV lysate", "value": 6.43}, {"measurement": "pIC50", "setting": "ERBB3; ERBB3 in YUSIK lysate", "value": 6.62}, {"measurement": "pIC50", "setting": "ERBB3; ERBB3 in YUSIV lysate", "value": 6.54}, {"measurement": "pIC50", "setting": "MEK1", "value": 5.54}, {"measurement": "pIC50", "setting": "mTOR; mTOR in YUSIK lysate", "value": 5.70}, {"measurement": "pIC50", "setting": "mTOR; mTOR in YUSIV lysate", "value": 5.89}, {"measurement": "pIC50", "setting": "RIPK2", "value": 7.70}, {"measurement": "pIC50", "setting": "EGFR; EGFR in YUSIK lysate", "value": 6.28}, {"measurement": "pIC50", "setting": "EGFR; EGFR in YUSIV lysate", "value": 5.89}, {"measurement": "pIC50", "setting": "YES1", "value": "> 8.00"}, {"measurement": "AUC1", "setting": "YUGASP melanoma cells", "value": 119}, {"measurement": "AUC2", "setting": "YUGASP melanoma cells", "value": 103}, {"measurement": "pIC50", "setting": "[1]", "value": 6.01}, {"measurement": "MITF levels", "setting": "MITF", "value": "suppressed MITF levels in four out of seven melanoma cell lines"}]}
